Assay results as given in patent publication US20230183248A1, “PYRROLO[1,2-D][1,2,4]TRIAZINE-2-YL-ACETAMIDES AS INHIBITORS OF THE NLRP3 INFLAMMASOME PATHWAY” (JANSSEN PHARMACEUTICA NV, priority 2020, published 2023).

Experiments:
[1] = test system: IL-1β; test: PBMC assay: LPS-stimulated IL-1β release; format: cell-based; details: human PBMCs, 30 min compound pre-incubation, 100 ng/ml LPS for 6 hrs, supernatant, MSD
Experimental: (§1) Peripheral venous blood was collected from healthy individuals and human peripheral blood mononuclear cells (PBMCs) were isolated from blood by Ficoll-Histopaque (Sigma-Aldrich, A0561) density gradient centrifugation. After isolation, PBMCs were stored in liquid nitrogen for later use. Upon thawing, PBMC cell viability was determined in growth medium (RPMI media supplemented with 10% fetal bovine serum, 1% Pen-Strep and 1% L-glutamine). Compounds were spotted in a 1:3 serial dilution in DMSO and diluted to the final concentration in 30 µl medium in 96 well plates (Falcon, 353072). PBMCs were added at a density of 7.5 × 10^4 cells per well and incubated for 30 min in a 5% CO2 incubator at 37° C. LPS stimulation was performed by addition of 100 ng/ml LPS (final concentration, Invivogen, tlrl-smlps) for 6 hrs followed by collection of cellular supernatant and the analysis of IL-1β […] and TNF cytokines levels (µM) via MSD technology according to manufacturers’ guidelines (MSD, K151A0H).
(§2) The IC50 values (for IL-1β) and EC50 values (TNF) were obtained on compounds of the invention/examples, and are depicted in the following table: […]

[2] = test system: TNF; test: PBMC assay: LPS-stimulated TNF cytokine levels; format: cell-based; details: human PBMCs, 30 min compound pre-incubation, 100 ng/ml LPS for 6 hrs, supernatant, MSD
Experimental: as §1, §2

| Compound | IC50 ([1]; Homo sapiens, PBMC) | EC50 ([2]; Homo sapiens, PBMC) | IC50 [1] | EC50 [2] |
| --- | --- | --- | --- | --- |
| CC(C)c1nn(CC(=O)Nc2ccncc2F)c(=O)c2cc(I)cn12 [Compound 4F, N-(3-fluoro-4-pyridyl)-2-(7-iodo-4-isopropyl-1-oxo-pyrrolo[1,2-d][1,2,4]triazin-2-yl)acetamide] | 0.25 µM | > 10 µM | – | – |
| CC(C)c1nn(CC(=O)Nc2ccncn2)c(=O)c2cc(C3CCNCC3)cn12 [Compound 84F, 2-(4-isopropyl-1-oxo-7-(piperidin-4-yl)pyrrolo[1,2-d][1,2,4]triazin-2(1H)-yl)-N-(pyrimidin-4-yl)acetamide] | > 10 µM | > 10 µM | – | – |
| CC(C)c1nn(CC(=O)Nc2ccncc2F)c(=O)c2cc(C(F)(F)F)cn12 [Compound 32F, N-(3-fluoro-4-pyridyl)-2-[4-isopropyl-1-oxo-7-(trifluoromethyl)pyrrolo[1,2-d][1,2,4]triazin-2-yl]acetamide] | 1.5 µM | > 10 µM | – | – |
| CC(C)c1nn(CC(=O)Nc2ccncn2)c(=O)c2cc(C3CCOCC3)cn12 [Compound 79F] | > 10 µM | > 10 µM | – | – |
| CC(C)c1nn(CC(=O)Nc2ccncn2)c(=O)c2cc(C3CCC3)cn12 [Compound 30F, 2-(7-cyclobutyl-4-isopropyl-1-oxo-pyrrolo[1,2-d][1,2,4]triazin-2-yl)-N-pyrimidin-4-yl-acetamide] | 0.99 µM | > 10 µM | – | – |
| CC(C)c1cc2c(=O)n(CC(=O)Nc3ccncc3F)nc(C(C)C)n2c1 [Compound 18F] | 0.33 µM | > 10 µM | – | – |
| CC(C)c1cc2c(=O)n(CC(=O)Nc3ccncn3)nc(C(C)(C)O)n2c1 [Compound 37F, 2-[4-(1-hydroxy-1-methyl-ethyl)-7-isopropyl-1-oxo-pyrrolo[1,2-d][1,2,4]triazin-2-yl]-N-pyrimidin-4-yl-acetamide] | 4.28 µM | > 10 µM | – | – |
| CC(C)c1nn(CC(=O)Nc2ccc3nncn3c2)c(=O)c2cc(I)cn12 [Compound 71F] | 0.14 µM | 19.8 µM | 0.26 µM | > 10 µM |
| CCOC(C)c1nn(CC(=O)Nc2ccncn2)c(=O)c2cc(C(C)C)cn12 (stereo not drawn) [Compound 40F] | 8.13 µM | > 10 µM | – | – |
| CC(C)c1nn(CC(=O)Nc2ccncn2)c(=O)c2cc(Cc3ccccc3)cn12 [Compound 75F] | > 10 µM | > 10 µM | – | – |
| CCc1nn(CC(=O)Nc2ccncn2)c(=O)c2cc(C3CC3)cn12 [Compound 20F] | 0.59 µM | > 10 µM | – | – |
| CC(C)c1nn(CC(=O)Nc2ccncn2)c(=O)c2cc(CC3CCNCC3)cn12 [Compound 82F, 2-(4-isopropyl-1-oxo-7-(piperidin-4-ylmethyl)pyrrolo[1,2-d][1,2,4]triazin-2(1H)-yl)-N-(pyrimidin-4-yl)acetamide] | > 10 µM | > 10 µM | – | – |
| CNC(=O)c1cc2c(=O)n(CC(=O)Nc3ccncn3)nc(C(C)C)n2c1 [Compound 76F, 4-isopropyl-N-methyl-1-oxo-2-(2-oxo-2-(pyrimidin-4-ylamino)ethyl)-1,2-dihydropyrrolo[1,2-d][1,2,4]triazine-7-carboxamide] | > 10 µM | > 10 µM | – | – |
| COc1nn(CC(=O)NC2CCOCC2)c(=O)c2cc(C(C)C)cn12 [Compound 66F] | 5.04 µM | > 10 µM | – | – |
| CC(C)c1nn(CC(=O)Nc2ccncn2)c(=O)c2cc(-c3c[nH]cn3)cn12 [Compound 94F, 2-(7-(1H-imidazol-4-yl)-4-isopropyl-1-oxopyrrolo[1,2-d][1,2,4]triazin-2(1H)-yl)-N-(pyrimidin-4-yl)acetamide] | > 10 µM | > 10 µM | – | – |
| CCc1cc2c(=O)n(CC(=O)Nc3ccncn3)nc(C(C)C)n2c1 [Compound 23F] | 0.28 µM | > 10 µM | – | – |
| CC(=O)N(C)Cc1cc2c(=O)n(CC(=O)Nc3ccncn3)nc(C(C)C)n2c1 [Compound 70F, N-((4-isopropyl-1-oxo-2-(2-oxo-2-(pyrimidin-4-ylamino)ethyl)-1,2-dihydropyrrolo[1,2-d][1,2,4]triazin-7-yl)methyl)-N-methylacetamide] | > 10 µM | > 10 µM | – | – |
| CNCc1cc2c(=O)n(CC(=O)Nc3ccncn3)nc(C(C)C)n2c1 [Compound 44F] | > 10 µM | > 10 µM | – | – |
| CCCc1cc2c(=O)n(CC(=O)Nc3ccncn3)nc(OC)n2c1 [Compound 54F] | 2.51 µM | > 10 µM | – | – |
| COCc1cc2c(=O)n(CC(=O)Nc3ccncn3)nc(C(C)C)n2c1 [Compound 3F] | 7.85 µM | > 10 µM | – | – |
| CC(C)c1nn(CC(=O)Nc2ccncn2)c(=O)c2cc(-c3cc[nH]n3)cn12 [Compound 92F] | > 10 µM | > 10 µM | – | – |
| CC(C)c1nn(CC(=O)Nc2ccncn2)c(=O)c2cc(C(=O)N(C)C)cn12 [Compound 77F] | > 10 µM | > 10 µM | – | – |
| CC(C)c1nn(CC(=O)Nc2ccncn2)c(=O)c2cccn12 [Compound 11F] | > 10 µM | > 10 µM | – | – |
| C=Cc1cc2c(=O)n(CC(=O)Nc3ccncn3)nc(C(C)C)n2c1 [Compound 17F] | 1.13 µM | > 10 µM | – | – |
| CC(C)c1cc2c(=O)n(CC(=O)N[C@@H]3CCCN(C4CCC4)C3)nc(C(C)C)n2c1 [Compound 67F] | – | > 10 µM | – | – |
| CC(C)c1cc2c(=O)n(CC(=O)Nc3ccc4nncn4c3)nc(C(C)C)n2c1 [Compound 69F] | 0.28 µM | – | – | – |
| CC(C)c1nn(CC(=O)Nc2ccncn2)c(=O)c2cc(CC3CC(=O)N(C)C3)cn12 (stereo not drawn) [Compound 81F] | > 10 µM | – | – | – |

The next lines start with the values.

| IC50 ([1]; Homo sapiens, PBMC) | EC50 ([2]; Homo sapiens, PBMC) | IC50 [1] | EC50 [2] | Compound |
| --- | --- | --- | --- | --- |
| > 10 µM | > 10 µM | – | – | CC(C)c1nn(CC(=O)Nc2ccncn2)c(=O)c2cc(-c3ccn(C)n3)cn12 [Compound 90F] |
| 9.86 µM | > 10 µM | – | – | CC(C)c1nn(CC(=O)Nc2ccncn2)c(=O)c2cc(CO)cn12 [Compound 12F] |
| 1.37 µM | > 10 µM | 1.88 µM | – | COc1nn(CC(=O)Nc2ccncn2)c(=O)c2cc(C(C)C)cn12 [Compound 53F] |
| – | – | 1.26 µM | > 10 µM | CC(C)c1nn(CC(=O)Nc2ccncc2F)c(=O)c2cc(Br)cn12 [Compound 2F] |
| 1.66 µM | > 10 µM | – | – | CC(C)c1cc2c(=O)n(CC(=O)Nc3ccncn3)nc(N(C)CC3CC3)n2c1 [Compound 57F] |
| 0.24 µM | > 10 µM | – | – | CC(C)c1nn(CC(=O)N[C@H]2C[C@@](C)(O)C2)c(=O)c2cc(I)cn12 [Compound 72F] |
| 4.24 µM | > 10 µM | – | – | CC(C)c1nn(CC(=O)Nc2cccnc2)c(=O)c2cc(Br)cn12 [Compound 8F] |
| > 10 µM | > 10 µM | – | – | CC(C)c1nn(CC(=O)Nc2ccncn2)c(=O)c2cc(-c3cn[nH]c3)cn12 [Compound 91F] |
| 7.08 µM | > 10 µM | 9.06 µM | – | COC(C)c1cc2c(=O)n(CC(=O)Nc3ccncn3)nc(C(C)C)n2c1 (stereo not drawn) [Compound 88F] |
| > 10 µM | > 10 µM | – | – | CC(C)c1nn(CC(=O)Nc2ccncn2)c(=O)c2cc(C3CNC3)cn12 [Compound 83F, 2-(7-(azetidin-3-yl)-4-isopropyl-1-oxopyrrolo[1,2-d][1,2,4]triazin-2(1H)-yl)-N-(pyrimidin-4-yl)acetamide] |
| > 10 µM | > 10 µM | – | – | CC(C)c1nn(CC(=O)Nc2ccncn2)c(=O)c2cc(CC3CCCOC3)cn12 (stereo not drawn) [Compound 80F, 2-(4-isopropyl-1-oxo-7-((tetrahydro-2H-pyran-3-yl)methyl)pyrrolo[1,2-d][1,2,4]triazin-2(1H)-yl)-N-(pyrimidin-4-yl)acetamide] |
| > 10 µM | > 10 µM | – | – | CC(C)c1nn(CC(=O)Nc2ccncc2F)c(=O)c2cc(F)cn12 [Compound 52F] |
| – | > 10 µM | – | – | CC(C)c1nn(CC(=O)Nc2ccncn2)c(=O)c2cc(I)cn12 [Compound 5F, 2-(7-iodo-4-isopropyl-1-oxo-pyrrolo[1,2-d][1,2,4]triazin-2-yl)-N-pyrimidin-4-yl-acetamide] |
| 3.84 µM | > 10 µM | – | – | CC(C)Cc1cc2c(=O)n(CC(=O)Nc3ccncn3)nc(C(C)C)n2c1 [Compound 34F, 2-(7-isobutyl-4-isopropyl-1-oxo-pyrrolo[1,2-d][1,2,4]triazin-2-yl)-N-pyrimidin-4-yl-acetamide] |
| > 10 µM | > 10 µM | – | – | CC(C)c1nn(CC(=O)Nc2ccncn2)c(=O)c2cc(-c3cnn(C)c3)cn12 [Compound 89F, 2-(4-isopropyl-7-(1-methyl-1H-pyrazol-4-yl)-1-oxopyrrolo[1,2-d][1,2,4]triazin-2(1H)-yl)-N-(pyrimidin-4-yl)acetamide] |
| > 10 µM | > 10 µM | – | – | CC(C)c1nn(CC(=O)Nc2ccncn2)c(=O)c2cc(CN(C)C)cn12 [Compound 43F, 2-(7-((dimethylamino)methyl)-4-isopropyl-1-oxopyrrolo[1,2-d][1,2,4]triazin-2(1H)-yl)-N-(pyrimidin-4-yl)acetamide] |
| 0.71 µM | > 10 µM | – | – | CC(C)c1nn(CC(=O)Nc2ccncn2)c(=O)c2cc(Br)cn12 [Compound 1F, 2-(7-bromo-4-isopropyl-1-oxo-pyrrolo[1,2-d][1,2,4]triazin-2-yl)-N-pyrimidin-4-yl-acetamide] |
| 2.33 µM | > 10 µM | – | – | CC(C)c1nn(CC(=O)Nc2ccncn2)c(=O)c2cc(CCCF)cn12 [Compound 78F, 2-(7-(3-fluoropropyl)-4-isopropyl-1-oxopyrrolo[1,2-d][1,2,4]triazin-2(1H)-yl)-N-(pyrimidin-4-yl)acetamide] |
